We go through three compounds from US20220000777A1, “LIPOSOMAL ENHANCED INTRA-PERITONEAL CHEMOTHERAPY” (TESORX PHARMA, LLC, priority 2018, published 2022).

Structures are written as SMILES. Several values for one entry are separate records, joined by “and”; a condition that tells them apart may be missing. Equal values may be shown once. Where a name gives a salt, the structure may show the parent alone. Read-outs that look alike come from different tables or passages of the source.

The subject of series [1] is ovarian cancer. As to conditions: intraperitoneal cisplatin regimen, versus 41 months, p=0.02; cited from earlier work.
The conditions of series [2]: cited from earlier work.
The test system of series [3] is OVCAR3-RFP human ovarian cancer cells. The series can be described thus: sulforhodamine B (SRB) assay, dosage curves and IC50. Type of series: cell-based. The settings on record: 72 h treatment; for IC50: Homo sapiens, 72 h. As to the method: Example 1. Determination of paclitaxel […] in TSD-001-treated human ovarian cancer cells. A sulforhodamine B (SRB) assay-based approach was employed to determine the inhibitory concentration (IC)50 of paclitaxel against OVCAR3-RFP human ovarian cancer cells (Anticancer Inc.) treated with the TSD-001 paclitaxel liposomal formulation (Paclitaxel:DMPC:DMPG=1:1.43:0.567). For use in the assay, lyophilized TSD-001 was reconstituted in sterile injectable-grade water to a concentration of 6 mg/mL and subsequently serially diluted in RPMI cell culture medium (RPMI-1640 with L-glutamine, Corning). Three separate dosage curve assays were performed. In two of the assays, the serial dilutions of TSD-001 ranged from 0.05 μg/mL to 0.391 ng/mL, and in the third assay, the serial dilutions of TSD-001 ranged from 0.0128 μg/mL to 2.147 ng/mL.
Serial dilutions of the Abraxane® paclitaxel formulation (nanoparticle albuminbound paclitaxel) and doxorubicin HCl were also prepared to perform comparative dosage curve assays in OVCAR3-RFP cells. For these assays, lyophilized Abraxane® was dissolved in RPMI medium to a concentration of 1 mg/mL, and doxorubicin HCl was dissolved in a small amount of DMSO, and the diluted in RPMI medium to a concentration of 1 mg/mL. Three separate dosage curve assays were performed for Abraxane®. In one assay, the serial dilutions of Abraxane® ranged from 0.04 μg/mL to 0.078 ng/mL. In the second assay, the serial dilutions of Abraxane® ranged from 0.04 μg/mL to 8.39 ng/mL and in the third assay, the serial dilutions of Abraxane® ranged from 0.032 μg/mL to 8.39 ng/mL. […]
OVCAR3-RFP cells were seeded onto 96-well clear flat-bottom polystyrene tissue culture plates (Corning) at a density of approximately 5×10^3 cells/well in 200 μl of RPMI. […] Protein-bound SRB was detected by adding 200 μl 10 mM Tris base solution (pH 10.5) to each well, followed by placing the plate(s) on a byratory shaker for 5 minutes to allow the Tris solution to solubilize SRB. The plates were read using a microplate reader at an absorbance of 510 nm. […]

Series [4] has as its system ovarian cancer. The settings on record: cited from earlier work.

Consider `N.N.[Cl][Pt][Cl]` [cisplatin, Cis-diamminedichloroplatinum(10)], for which, in series [1], the overall survival median is 49 months. Besides, in series [2] (in vivo, ip), the “peritoneal cavity exposure to greater concentrations than possible with systemic therapy delivery” value is reported as 10-20 fold.

As for `COc1cccc2c1C(=O)c1c(O)c3c(c(O)c1C2=O)C[C@@](O)(C(=O)CO)C[C@@H]3O[C@H]1C[C@H](N)[C@H](O)[C@H](C)O1` [doxorubicin HCl], the IC50 amounted to 0.191 ± 0.0835 µg/mL in series [3] (Table 1, combined data, read-out: Mean IC50 (μg/mL) against OVCAR3-RFP cells (n ≥ 5)) and 0.17 µg/mL in series [3] (single dosage curve assay, n=3 or 4 wells/concentration, read-out: IC50 at 72 h.). Moreover, the “IC50 at 72 h.” value in series [3] (single dosage curve assay, n=3 or 4 wells/concentration, HCl) was 0.1322 µg/mL and 0.166 µg/mL.

As for `CC(=O)O[C@H]1C(=O)[C@@]2(C)[C@H]([C@H](OC(=O)c3ccccc3)[C@]3(O)C[C@H](OC(=O)[C@H](O)[C@@H](NC(=O)c4ccccc4)c4ccccc4)C(C)=C1C3(C)C)[C@]1(OC(C)=O)CO[C@@H]1C[C@@H]2O` [paclitaxel], the surgical complete response in series [4] (intraperitoneal 60 mg/m^2 per week for 16 weeks, microscopic residual patients) was 61%. Also, the complete response result in series [4] (intraperitoneal 60 mg/m^2 per week for 16 weeks, women with macroscopic residual cancer) is “one of the 31”. In addition, the dose-limiting toxicity result in series [4] (intraperitoneal use, Phase 1 study) was “abdominal pain”. The “peritoneal cavity exposure to greater concentrations than possible with systemic therapy delivery” value in series [2] (intraperitoneal versus systemic delivery) was “greater than 1000 fold”.
